Data published in the supplement of paper PMC10307832.

Tests used:
Test in all cases: relative viability (nuclei count vs DMSO), 5 days (fraction); higher = more cells survive
Doxorubicin + Lapatinib = compound: COc1cccc2c1C(=O)c1c(O)c3c(c(O)c1C2=O)C[C@@](O)(C(=O)CO)C[C@@H]3O[C@H]1C[C@H](N)[C@H](O)[C@H](C)O1 [Doxorubicin] + CS(=O)(=O)CCNCc1ccc(-c2ccc3ncnc(Nc4ccc(OCc5cccc(F)c5)c(Cl)c4)c3c2)o1 [Lapatinib] (partner 2 µM)
Summary of the method: (§1)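 Lung cancer cell lines in 1536-well plates got either a single drug or a fixed anchor-drug dose together with five library-drug doses (not always all listed) in √10 steps, by pin tool, on the day after seeding. Nuclei were counted after 5 days, and relative viability is the treated-to-vehicle ratio of nuclei counts. Values are medians of duplicate plates.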

BAY61-3606 + Phenformin = compound: COC1=C(C=C(C=C1)C2=CC3=NC=CN3C(=N2)NC4=C(C=CC=N4)C(=O)N)OC [BAY61-3606] + N=C(N)NC(=N)NCCc1ccccc1 [Phenformin] (partner 250 µM)
Summary of the method: as §1

BAY61-3606 + Vorinostat = compound: COC1=C(C=C(C=C1)C2=CC3=NC=CN3C(=N2)NC4=C(C=CC=N4)C(=O)N)OC [BAY61-3606] + O=C(CCCCCCC(=O)Nc1ccccc1)NO [Vorinostat] (partner 1 µM)
Summary of the method: as §1

Doxorubicin + Vorinostat = compound: COc1cccc2c1C(=O)c1c(O)c3c(c(O)c1C2=O)C[C@@](O)(C(=O)CO)C[C@@H]3O[C@H]1C[C@H](N)[C@H](O)[C@H](C)O1 [Doxorubicin] + O=C(CCCCCCC(=O)Nc1ccccc1)NO [Vorinostat] (partner 1 µM)
Summary of the method: as §1

Row | Cell Line | relative viability (Doxorubicin + Lapatinib; first compound 0.001 µM) | relative viability (Doxorubicin + Lapatinib; first compound 0.003162 µM) | relative viability (Doxorubicin + Lapatinib; first compound 0.01 µM) | relative viability (Doxorubicin + Lapatinib; first compound 0.03162 µM) | relative viability (Doxorubicin + Lapatinib; first compound 0.1 µM) | relative viability (BAY61-3606 + Phenformin; first compound 0.02 µM) | relative viability (BAY61-3606 + Phenformin; first compound 0.06325 µM) | relative viability (BAY61-3606 + Phenformin; first compound 0.2 µM) | relative viability (BAY61-3606 + Phenformin; first compound 0.6325 µM) | relative viability (BAY61-3606 + Phenformin; first compound 2 µM) | relative viability (BAY61-3606 + Vorinostat; first compound 0.02 µM) | relative viability (BAY61-3606 + Vorinostat; first compound 0.06325 µM) | relative viability (BAY61-3606 + Vorinostat; first compound 0.2 µM) | relative viability (BAY61-3606 + Vorinostat; first compound 0.6325 µM) | relative viability (BAY61-3606 + Vorinostat; first compound 2 µM) | relative viability (Doxorubicin + Vorinostat; first compound 0.001 µM) | relative viability (Doxorubicin + Vorinostat; first compound 0.003162 µM) | relative viability (Doxorubicin + Vorinostat; first compound 0.01 µM) | relative viability (Doxorubicin + Vorinostat; first compound 0.03162 µM) | relative viability (Doxorubicin + Vorinostat; first compound 0.1 µM)
1 | COR-L23 | 0.955 | 1.19 | 0.921 | 0.241 | 0.14 | 0.474 | 0.438 | 0.495 | 0.466 | 0.352 | 0.564 | 0.5 | 0.511 | 0.491 | 0.323 | 0.48 | 0.395 | 0.356 | 0.252 | 0.157
2 | NCI-H2126 | 0.766 | 0.796 | 0.76 | 0.728 | 0.773 | 0.547 | 0.496 | 0.524 | 0.491 | 0.47 | 0.799 | 0.761 | 0.733 | 0.747 | 0.619 | 0.725 | 0.839 | 0.8 | 0.751 | 0.799
3 | LCLC-103H | – | – | – | – | – | 0.342 | 0.328 | 0.297 | 0.328 | 0.352 | 0.782 | 0.716 | 0.724 | 0.791 | 0.789 | 0.775 | 0.823 | 0.779 | 0.811 | 0.902
4 | NCI-H1299 | 0.988 | 0.973 | 0.955 | 0.889 | 0.514 | – | – | – | – | – | – | – | – | – | – | – | – | – | – | –
5 | NCI-H1703 | 0.821 | 1.14 | 0.448 | 0.241 | 0.21 | – | – | – | – | – | – | – | – | – | – | – | – | – | – | –
6 | NCI-H441 | – | – | – | – | – | 0.818 | 0.934 | 0.782 | 0.972 | 0.652 | 0.997 | 0.88 | 0.916 | 0.803 | 0.678 | 0.87 | 0.962 | 0.75 | 0.279 | 0.372
7 | ChaGo-K-1 | – | – | – | – | – | 0.513 | 0.451 | 0.515 | 0.462 | 0.52 | 0.72 | 0.767 | 0.715 | 0.714 | 0.793 | 0.763 | 0.76 | 0.721 | 0.698 | 0.574
8 | NCI-H2342 | – | – | – | – | – | 0.629 | 0.65 | 0.535 | 0.586 | 0.662 | 0.87 | 0.818 | 0.835 | 0.867 | 0.762 | 0.757 | 0.845 | 0.692 | 0.535 | 0.696
9 | SW 900 | – | – | – | – | – | 0.736 | 0.456 | 0.489 | 0.594 | 0.473 | 0.457 | – | – | 0.564 | 0.439 | – | 0.452 | 0.394 | 0.346 | 0.26
10 | NCI-H1563 | 0.721 | 0.779 | 0.661 | 0.545 | 0.549 | 0.631 | 0.59 | 0.604 | 0.62 | 0.61 | – | – | – | – | – | – | – | – | – | –
11 | NCI-H1648 | – | – | – | – | – | – | – | – | – | – | 0.797 | 0.44 | 0.648 | – | 0.706 | 0.421 | 0.376 | 0.468 | 0.285 | 0.467
12 | NCI-H522 | – | – | – | – | – | 0.634 | 0.624 | 0.674 | 0.749 | 0.557 | 0.896 | 0.869 | 0.839 | 0.733 | 0.661 | 0.869 | 0.93 | 0.716 | 0.786 | 0.878
13 | A549 | 0.922 | 0.954 | 0.415 | 0.0939 | 0.0714 | 0.17 | 0.0908 | 0.0972 | 0.212 | 0.166 | – | – | – | – | – | – | – | – | – | –
